The record followed here is publication PMC4489319 (ACS Infectious Diseases, 2015).

One assay addresses ChsE4-ChsE5 (Mycobacterium tuberculosis, UniProt I6YCA3).
Assay [1] concerns the target T1, ChsE4 (Rv3504, formerly FadE26), N-terminal His6 tag (Mycobacterium tuberculosis H37Rv, UniProt I6YCA3 1-400).
T1 sequence: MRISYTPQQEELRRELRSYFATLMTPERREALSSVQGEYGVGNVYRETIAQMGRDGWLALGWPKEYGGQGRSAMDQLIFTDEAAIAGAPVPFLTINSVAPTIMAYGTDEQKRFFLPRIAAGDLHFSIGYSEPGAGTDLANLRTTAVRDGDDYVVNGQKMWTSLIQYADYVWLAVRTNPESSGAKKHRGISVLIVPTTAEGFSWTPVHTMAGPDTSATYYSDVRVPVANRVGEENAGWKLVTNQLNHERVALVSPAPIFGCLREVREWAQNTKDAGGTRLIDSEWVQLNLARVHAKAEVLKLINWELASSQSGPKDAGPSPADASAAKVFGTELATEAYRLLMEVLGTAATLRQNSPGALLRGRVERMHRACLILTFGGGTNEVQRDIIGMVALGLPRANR
Kind of assay: AUC + other: LC/UV/MS.

By KM is commonly meant the concentration of substrate that gives half-maximal velocity. `CC(CCC[C@@H](C)[C@H]1CC[C@H]2[C@@H]3CCC4=CC(=O)CC[C@]4(C)[C@H]3CC[C@]12C)C(=O)SCCNC(=O)CCNC(=O)[C@H](O)C(C)(C)COP(=O)(O)OP(=O)(O)OC[C@H]1O[C@@H](n2cnc3c(N)ncnc32)[C@H](O)[C@@H]1OP(=O)(O)O` (some centres unmarked) [3-OCS-CoA]: the “KM” value at ChsE4-ChsE5 worked out at 20 ± 2.7 µM.

B1: ChsE5 (Rv3505, formerly FadE27) (enzyme)
chain: MDFTTTEAAQDLGGLVDTIVDAVCTPEHQRELDKLEQRFDRELWRKLIDAGILSSAAPESLGGDGFGVLEQVAVLVALGHQLAAVPYLESVVLAAGALARFGSPELQQGWGVSAVSGDRILTVALDGEMGEGPVQAAGTGHGYRLTGTRTQVGYGPVADAFLVPAETDSGAAVFLVAAGDPGVAVTALATTGLGSVGHLELNGAKVDAARRVGGTDVAVWLGTLSTLSRTAFQLGVLERGLQMTAEYARTREQFDRPIGSFQAVGQRLADGYIDVKGLRLTLTQAAWRVAEDSLASRECPQPADIDVATAGFWAAEAGHRVAHTIVHVHGGVGVDTDHPVHRYFLAAKQTEFALGGATGQLRRIGRELAETPA
Regarding B1, in assay [1], the binding result is “binds”.
